Patent publication US11903387B2 (priority 2016, dated 2024)
Like-named read-outs stand apart in the source and are kept apart here.

Tests used:
Phytophthora infestans = experiment: whole plant or invertebrate; type: in vivo; conditions: for pest or weed control at 20 ppm: read-out: Test 1 Measured, component (b) alone 20 ppm; for pest or weed control at 100 ppm: read-out: Test 1 Measured, component (b) alone 100 ppm; for pest or weed control at 500 ppm: read-out: Test 1 Measured, component (b) alone 500 ppm; for Test 1 preventive value, Measured: applied alone
[1] = tested on: Pseudoperonospora cubensis; experiment: Test 2: control effect against cucumber downy mildew; type: in vivo; conditions: for pest or weed control at 20 ppm: component (b) alone 20 ppm; for pest or weed control at 100 ppm: component (b) alone 100 ppm; for pest or weed control at 500 ppm: component (b) alone 500 ppm; for pest or weed control at 10 ppm / pest or weed control at 50 ppm / pest or weed control at 250 ppm / Test 2 preventive value, Measured / pest or weed control at 2 ppm: applied alone; for pest or weed control at 10 ppm / pest or weed control at 50 ppm / pest or weed control at 250 ppm / pest or weed control at 2 ppm: read-out: Test 2 preventive value, Measured
[2] = Phytophthora infestans, in Solanum lycopersicum
[3] = Pseudoperonospora cubensis, read-out: Test 2 Measured
[4] = component (b) alone 0.4 ppm, average of three repeats
[5] = component (b) alone 2 ppm, average of three repeats
[6] = component (b) alone 10 ppm, average of three repeats
[7] = Phytophthora infestans, in Solanum lycopersicum, read-out: Test 1 preventive value, Measured, applied alone, 50 ppm
[8] = Pseudoperonospora cubensis, 10 ppm
[9] = Pseudoperonospora cubensis, 50 ppm
[10] = Phytophthora infestans, in Solanum lycopersicum, read-out: Test 1 preventive value, Measured, applied alone, 10 ppm
[11] = Phytophthora infestans, in Solanum lycopersicum, read-out: Test 1 preventive value, Measured, applied alone, 2 ppm
[12] = Pseudoperonospora cubensis, 2 ppm

Cc1cccc2sc3nncn3c12 [Tricyclazole]
pest or weed control at 20 ppm (Phytophthora infestans; [2]): 0% | pest or weed control at 100 ppm (Phytophthora infestans; [2]): 0% | pest or weed control at 500 ppm (Phytophthora infestans; [2]): 70% | pest or weed control at 20 ppm [1, 3]: 0% | pest or weed control at 100 ppm [1, 3]: 0% | pest or weed control at 500 ppm [1, 3]: 22.5%

CC(C)(C)C(O)(CCc1ccc(Cl)cc1)Cn1cncn1 (centres unmarked) [Tebuconazole]
pest or weed control at 20 ppm (Phytophthora infestans; [2]): 0% | pest or weed control at 100 ppm (Phytophthora infestans; [2]): 0% | pest or weed control at 500 ppm (Phytophthora infestans; [2]): 16.7% | pest or weed control at 20 ppm [1, 3]: 0% | pest or weed control at 100 ppm [1, 3]: 10% | pest or weed control at 500 ppm [1, 3]: 97%

COC(=O)CC(NC(=O)[C@@H](NC(=O)OC(C)C)C(C)C)c1ccc(Cl)cc1 (some centres unmarked) [Valifenalate]
Test 1 Measured preventive value (Phytophthora infestans; [4]): 20.0 | Test 1 Measured preventive value (Phytophthora infestans; [5]): 51.7 | Test 1 Measured preventive value (Phytophthora infestans; [6]): 96.2 | Test 1 Measured (Phytophthora infestans; component (b) alone, 0.4 ppm): 10.0 | Test 1 Measured preventive value (Phytophthora infestans; component (b) alone, 0.4 ppm): 20.0 | Test 1 Measured (Phytophthora infestans; component (b) alone, 2 ppm): 45.2 | Test 1 Measured preventive value (Phytophthora infestans; component (b) alone, 2 ppm): 51.7 | Test 1 Measured (Phytophthora infestans; component (b) alone, 10 ppm): 97.0 | Test 1 Measured preventive value (Phytophthora infestans; component (b) alone, 10 ppm): 96.2 | Test 2 Measured preventive value [1, 4]: 0 | Test 2 Measured preventive value [1, 5]: 57.5 | Test 2 Measured preventive value [1, 6]: 93.5 | Test 2 Measured ([1]; component (b) alone, 0.4 ppm): 4 | Test 2 Measured preventive value ([1]; component (b) alone, 0.4 ppm): 0 | Test 2 Measured ([1]; component (b) alone, 2 ppm): 51.8 | Test 2 Measured preventive value ([1]; component (b) alone, 2 ppm): 57.5 | Test 2 Measured ([1]; component (b) alone, 10 ppm): 93 | Test 2 Measured preventive value ([1]; component (b) alone, 10 ppm): 93.5

CCCCCCCCc1c(CC)nc2ncnn2c1N [Ametoctradin]
Test 1 Measured (Phytophthora infestans; component (b) alone, 0.4 ppm): 0.0 | Test 1 Measured (Phytophthora infestans; component (b) alone, 2 ppm): 18.3 | Test 1 Measured (Phytophthora infestans; component (b) alone, 10 ppm): 95.7 | Test 2 Measured ([1]; component (b) alone, 0.4 ppm): 77.5 | Test 2 Measured ([1]; component (b) alone, 2 ppm): 95 | Test 2 Measured ([1]; component (b) alone, 10 ppm): 98.8

Basic copper sulfate
Test 1 Measured (Phytophthora infestans; component (b) alone, 20 ppm): 55 | Test 1 Measured preventive value (Phytophthora infestans; component (b) alone, 20 ppm): 71.7 | Test 1 Measured (Phytophthora infestans; component (b) alone, 100 ppm): 90.7 | Test 1 Measured preventive value (Phytophthora infestans; component (b) alone, 100 ppm): 92.5 | Test 1 Measured (Phytophthora infestans; component (b) alone, 500 ppm): 100 | Test 1 Measured preventive value (Phytophthora infestans; component (b) alone, 500 ppm): 100 | Test 2 Measured ([1]; component (b) alone, 20 ppm): 32 | Test 2 Measured preventive value ([1]; component (b) alone, 20 ppm): 18.8 | Test 2 Measured ([1]; component (b) alone, 100 ppm): 80.9 | Test 2 Measured preventive value ([1]; component (b) alone, 100 ppm): 82 | Test 2 Measured ([1]; component (b) alone, 500 ppm): 95 | Test 2 Measured preventive value ([1]; component (b) alone, 500 ppm): 97

CON=C(C(=O)OC)c1ccccc1CON=C(C)c1cccc(C(F)(F)F)c1 [Trifloxystrobin]
pest or weed control at 50 ppm (Phytophthora infestans; [7]): 28.3% | pest or weed control at 10 ppm [1, 8]: 0% | pest or weed control at 50 ppm [1, 9]: 0% | pest or weed control at 250 ppm ([1]; Pseudoperonospora cubensis): 0%

O=C(NCc1ncc(C(F)(F)F)cc1Cl)c1c(Cl)cccc1Cl [Fluopicolide]
Test 1 Measured (Phytophthora infestans; component (b) alone, 0.4 ppm): 0.0 | Test 1 Measured (Phytophthora infestans; component (b) alone, 2 ppm): 30.0 | Test 1 Measured (Phytophthora infestans; component (b) alone, 10 ppm): 90.8 | Test 2 Measured ([1]; component (b) alone, 0.4 ppm): 5 | Test 2 Measured ([1]; component (b) alone, 2 ppm): 98.3 | Test 2 Measured ([1]; component (b) alone, 10 ppm): 100

CCCOC(=O)NCCCN(C)C [Propamocarb]
pest or weed control at 200 ppm (Phytophthora infestans; Phytophthora infestans, in Solanum lycopersicum, read-out: Test 1 Measured, component (b) alone 200 ppm): 5% | pest or weed control at 1000 ppm (Phytophthora infestans; Phytophthora infestans, in Solanum lycopersicum, read-out: Test 1 Measured, component (b) alone 1000 ppm): 21.7% | pest or weed control at 5000 ppm (Phytophthora infestans; Phytophthora infestans, in Solanum lycopersicum, read-out: Test 1 Measured, component (b) alone 5000 ppm): 48.3% | pest or weed control at 200 ppm ([1]; Pseudoperonospora cubensis, component (b) alone 200 ppm, read-out: Test 2 Measured): 45% | pest or weed control at 1000 ppm ([1]; Pseudoperonospora cubensis, component (b) alone 1000 ppm, read-out: Test 2 Measured): 97.5% | pest or weed control at 5000 ppm ([1]; Pseudoperonospora cubensis, component (b) alone 5000 ppm, read-out: Test 2 Measured): 81.5%

CCNC(=O)NC(=O)/C(C#N)=N/OC [Cymoxanil]
pest or weed control at 2 ppm (Phytophthora infestans; Phytophthora infestans, in Solanum lycopersicum, read-out: Test 1 Measured preventive value, component (b) alone, 2 ppm): 31.7% | pest or weed control at 10 ppm (Phytophthora infestans; Phytophthora infestans, in Solanum lycopersicum, read-out: Test 1 Measured preventive value, component (b) alone, 10 ppm): 78.3% | pest or weed control at 50 ppm (Phytophthora infestans; Phytophthora infestans, in Solanum lycopersicum, read-out: Test 1 Measured preventive value, component (b) alone, 50 ppm): 100% | Test 2 Measured preventive value ([1]; component (b) alone, 2 ppm): 0 | Test 2 Measured preventive value ([1]; component (b) alone, 10 ppm): 0 | Test 2 Measured preventive value ([1]; component (b) alone, 50 ppm): 46.3

CO/C=C(/C(=O)OC)c1ccccc1Oc1cc(Oc2ccccc2C#N)ncn1 [Azoxystrobin]
Test 1 preventive value, Measured (Phytophthora infestans; 0.4 ppm): 5.0 | Test 1 preventive value, Measured (Phytophthora infestans; 2 ppm): 66.7 | Test 1 preventive value, Measured (Phytophthora infestans; 10 ppm): 96.2 | Test 2 preventive value, Measured ([1]; 0.4 ppm): 0 | Test 2 preventive value, Measured ([1]; 2 ppm): 0 | Test 2 preventive value, Measured ([1]; 10 ppm): 0

CC(C)CC(C)c1sccc1NC(=O)c1cn(C)nc1C(F)(F)F (centres unmarked) [Penthiopyrad]
pest or weed control at 10 ppm (Phytophthora infestans; [10]): 0% | pest or weed control at 50 ppm (Phytophthora infestans; [7]): 0% | pest or weed control at 250 ppm (Phytophthora infestans; Phytophthora infestans, in Solanum lycopersicum, read-out: Test 1 preventive value, Measured, applied alone, 250 ppm): 0% | pest or weed control at 10 ppm [1, 8]: 0% | pest or weed control at 50 ppm [1, 9]: 0% | pest or weed control at 250 ppm ([1]; Pseudoperonospora cubensis): 27.5%

Mancozeb
Test 1 Measured (Phytophthora infestans; component (b) alone, 2 ppm): 21.8 | Test 1 Measured preventive value (Phytophthora infestans; component (b) alone, 2 ppm): 11.7 | Test 1 Measured (Phytophthora infestans; component (b) alone, 10 ppm): 80.5 | Test 1 Measured preventive value (Phytophthora infestans; component (b) alone, 10 ppm): 84.2 | Test 1 Measured (Phytophthora infestans; component (b) alone, 50 ppm): 100.0 | Test 1 Measured preventive value (Phytophthora infestans; component (b) alone, 50 ppm): 100.0 | Test 2 Measured ([1]; component (b) alone, 2 ppm): 33 | Test 2 Measured ([1]; component (b) alone, 10 ppm): 100 | Test 2 Measured preventive value ([1]; component (b) alone, 10 ppm): 99 | Test 2 Measured ([1]; component (b) alone, 50 ppm): 100 | Test 2 Measured preventive value ([1]; component (b) alone, 50 ppm): 100

CCO[PH](=O)O [Fosetyl-aluminum]
Test 1 Measured (Phytophthora infestans; component (b) alone 80 ppm): 31.7 | Test 1 Measured (Phytophthora infestans; component (b) alone 400 ppm): 85.7 | Test 2 Measured ([1]; component (b) alone 80 ppm): 0 | Test 2 Measured ([1]; component (b) alone 400 ppm): 22.5 | Test 2 Measured ([1]; component (b) alone 2000 ppm): 49

CO/N=C(/C(=O)OC)c1ccccc1COc1ccccc1C [Kresoxim-methyl]
pest or weed control at 2 ppm (Phytophthora infestans; [11]): 50% | pest or weed control at 10 ppm (Phytophthora infestans; [10]): 90.7% | pest or weed control at 50 ppm (Phytophthora infestans; [7]): 99.8% | pest or weed control at 2 ppm [1, 12]: 0% | pest or weed control at 10 ppm [1, 8]: 7.5% | pest or weed control at 50 ppm [1, 9]: 2.5%

C[C@@]1(c2ccc(Oc3ccccc3)cc2)OC(=O)N(Nc2ccccc2)C1=O (racemic) [Famoxadone]
pest or weed control at 2 ppm (Phytophthora infestans; [11]): 0% | pest or weed control at 10 ppm (Phytophthora infestans; [10]): 0% | pest or weed control at 50 ppm (Phytophthora infestans; [7]): 10% | pest or weed control at 2 ppm [1, 12]: 0% | pest or weed control at 10 ppm [1, 8]: 0% | pest or weed control at 50 ppm [1, 9]: 0%

COc1cc(C)c(C(=O)c2c(OC)ncc(Cl)c2C)c(OC)c1OC [Pyriofenone]
Test 1 preventive value, Measured (Phytophthora infestans; 10 ppm): 0.0 | Test 1 preventive value, Measured (Phytophthora infestans; 50 ppm): 0.0 | Test 1 preventive value, Measured (Phytophthora infestans; 250 ppm): 0.0 | Test 2 Measured ([1]; component (b) alone 250 ppm): 10 | Test 2 Measured ([1]; component (b) alone, 10 ppm): 0 | Test 2 Measured ([1]; component (b) alone, 50 ppm): 5
